Measured values: ChEMBL document CHEMBL2016519, “A comparative study of backbone versus side chain peptide cyclization: application for HIV-1 integrase inhibitors” (Bioorg Med Chem, 2012)
Calls of active or inactive are those of the source. The calls are words filed in the database; no cut-off is given here. Starred links: 1 amine or outer side, 2 acyl side, 3 side chain; linkers in the order of their positions; H or OH if unused. Positions of bridges follow the written chain, without caps; N, C: chain ends. Non-standard residues stand in square brackets, D forms with d. Residues, ends and D or L forms follow the SMILES beside them. ξ: configuration not given here. X1 = NC(CC(=O)[*:1])C(=O)[*:2]; ξOrn = NCCCC(N)C(=O)O; Nlys = NCCCCNCC(=O)O; ξK = NCCCCC(N)C(=O)O

Tests used:
[1] = tested on: Human immunodeficiency virus 1; assay: Antiviral activity against wild type HIV1 infected in human H9 cells assessed as p24 protein expression pre-incubated with cells for 2 hrs at 12.5 uM measured after 6 days post infection using multiple dose study wherein additional dose was added every 2 days; type: functional; settings: for inhibition at 12.5 µM: Human immunodeficiency virus 1, H9
[2] = tested on: Human immunodeficiency virus 1; assay: Antiviral activity against wild type HIV1 infected in human H9 cells assessed as p24 protein expression pre-incubated with cells for 2 hrs at 12.5 uM measured after 8 days post infection using multiple dose study wherein additional dose was added every 2 days; type: functional; settings: for inhibition at 12.5 µM: Human immunodeficiency virus 1, H9
[3] = tested on: Human immunodeficiency virus 1; assay: Antiviral activity against wild type HIV1 infected in human H9 cells assessed as p24 protein expression pre-incubated with cells for 2 hrs at 12.5 uM measured after 8 days post infection using single dose study; type: functional; settings: for inhibition at 12.5 µM: Human immunodeficiency virus 1, H9
[4] = Stability in trypsin and chymotrypsin extract assessed as duration showing initiation of compound degradation at 37 degC by mass spectrometry; type: ADME
[5] = tested on: Human immunodeficiency virus 1; assay: Antiviral activity against wild type HIV1 infected in human H9 cells assessed as p24 protein expression pre-incubated with cells for 2 hrs at 12.5 uM measured after 6 days post infection using single dose study; type: functional; settings: for inhibition at 12.5 µM: Human immunodeficiency virus 1, H9
[6] = tested on: Human immunodeficiency virus 1; assay: Inhibition of His-tagged HIV-1 integrase C56S, W131D, F185K and […] mutant at 20 uM by fluorescence anisotropy
[7] = Binding affinity to His-tagged HIV-1 integrase C56S, W131D, F185K and […] mutant by fluorescence anisotropy; set-up: species or system Human immunodeficiency virus 1

Compound	inhibition [1]	inhibition [2]	inhibition at 12.5 µM [3] [%]	Stability [4] [min]	inhibition at 12.5 µM [5] [%]	inhibition [6] [%]	Kd [7] [µM]	inhibition at 12.5 µM [1] [%]	inhibition at 12.5 µM [2] [%]	inhibition [3]	inhibition [5]
CC[C@H](C)[C@@H]1NC(=O)[C@H](CCCCN)NC(=O)[C@H](CC(C)C)NC(=O)[C@H](CO)NC(=O)[C@H](CC(N)=O)NC(=O)[C@H](Cc2c[nH]c3ccccc23)NC(=O)CC(N)C(=O)NCCCCN(CC(N)=O)C(=O)[C@H](C(C)C)NC(=O)[C@H](CC(=O)O)NC(=O)[C@H](CC(C)C)NC(=O)[C@H](CC(N)=O)NC(=O)[C@H](CC(=O)O)NC1=O (stereo partly drawn) (WNSLKIDNLDV[Nlys]-NH2; linker N-12 via X1)	Active	Active	90	150	90	90	5				
CC[C@H](C)[C@@H]1NC(=O)[C@H](CCCCN)NC(=O)[C@H](CC(C)C)NC(=O)[C@H](CO)NC(=O)[C@H](CC(N)=O)NC(=O)[C@H](Cc2c[nH]c3ccccc23)NC(=O)CC(N)C(=O)NCCCCC(C(N)=O)NC(=O)[C@H](C(C)C)NC(=O)[C@H](CC(=O)O)NC(=O)[C@H](CC(C)C)NC(=O)[C@H](CC(N)=O)NC(=O)[C@H](CC(=O)O)NC1=O (stereo partly drawn) (WNSLKIDNLDV[ξK]-NH2; linker N-12 via X1)			65	150	80	55	2.5	85	85		
CC[C@H](C)[C@@H]1NC(=O)[C@H](CCCCN)NC(=O)[C@H](CC(C)C)NC(=O)[C@H](CO)NC(=O)[C@H](CC(N)=O)NC(=O)[C@H](Cc2c[nH]c3ccccc23)NC(=O)CC(N)C(=O)NCCCC(C(N)=O)NC(=O)[C@H](C(C)C)NC(=O)[C@H](CC(=O)O)NC(=O)[C@H](CC(C)C)NC(=O)[C@H](CC(N)=O)NC(=O)[C@H](CC(=O)O)NC1=O (stereo partly drawn) (WNSLKIDNLDV[ξOrn]-NH2; linker N-12 via X1)			25	150	25	50	2	40	40		
H-WNSLKIDNLDV-OH	Active	Active		30		83	5.1			inactive	inactive
